Measurements reported in patent publication US12274830B2, “Nitric oxide inhalation therapy for infants with bronchiolitis” (BEYOND AIR LTD, priority 2015, dated 2025).
Entries after “also recorded” stand apart in the source; their conditions may differ.

Legend:
[1] = tested on: Klebsiella sp.#2; conditions: 200 ppm gNO; cited from earlier work
[2] = tested on: S. aureus (ATCC 25923); conditions: 200 ppm gNO; cited from earlier work
[3] = tested on: influenza virions or infected cell (MDCK); conditions: intermittent (30 minutes every 4 hours) 160 ppm exogenous gaseous NO; MDCK cell model; cited from earlier work
[4] = tested on: Acinetobacter sp.; conditions: 200 ppm gNO; cited from earlier work
[5] = tested on: infants with acute bronchiolitis; experiment: Safety and tolerability of intermittent inhalations of 160 ppm NO in hospitalized infants with acute bronchiolitis (randomized double blind study); assay type: in vivo, human
Experimental: The study was conducted at the Soroka University Medical Center in southern Israel, and was approved by the Institutional and National Human Ethics Committee. A detailed study overview is attached as an online supplement. This study is registered with clinical trial number NCT01768884.
The study was a randomized, prospective, single center, double blind study of 2-11 month old hospitalized infants with acute bronchiolitis (FIG. 1).
Subjects were screened within 4 hours of admission and randomized (1:1) to receive intermittent inhalations of 160 ppm NO along with standard treatment (NO group) or intermittent inhalations of 02/air mixture and standard treatment (control group), for a maximum of 25 inhalations.
Standard Supportive Treatment: This treatment included humidified oxygen, nasal suction when needed and hydration (oral, intra-venous or nasogastric tube fluids). The use of other concomitant medications was allowed, according to the ward's common practice.
Nitric Oxide Treatment: Subjects spontaneously inspired 160 ppm NO in fixed flow mode via a facemask. Nitric Oxide (Maxima, Israel) of 800 ppm (0.08%) NO balanced with 99.999% purity Nitrogen (N2), was titrated into the O2/air inspiratory delivery line. Inhaled NO, NO2 and O2 concentrations in the patient breathing circuit were continuously monitored using dedicated gas analyzers. (AeroNox, International medical, USA).
Primary Outcome: Safety measures, included % MetHb and NO2 production associated with NO treatment, bleeding episodes and any other adverse event (AE). Study threshold for NO2 and MetHb was set at 5 ppm and 5%, respectively.
The primary outcome was safety and tolerability of intermittent inhalations of 160 ppm NO, given to infants 2 to 11 months with acute bronchiolitis. Safety measures included % MetHb associated with NO treatment (safety threshold was determined as >5% for MetHb and >5 ppm for NO2), as well as any other AEs. Tolerability measures included the proportions of subjects who prematurely discontinued the study for any reason, and the proportion of subjects who prematurely discontinued the treatment due to severe SAEs.
The research staff was divided into “blinded” and “unblinded” groups. The unblinded staff administered the inhalations to the infants and monitored % MetHb, % SpO2 (co-oximeter, RAD57/RAD 87, Masimo Corporation, USA), fractional inhaled O2 (FiO2), NO, NO2 levels. The blinded group included the primary investigator and all other staff directly involved with patient care. Safety threshold for NO2 and MetHb was set at 5 ppm and 5%, respectively. It should be emphasized that both treatments, NO/O2 (NO treatment) as well as O2/air mixture (control) were given via the same device, therefore, parents were also blinded to the treatment arm.
Each patient was given 5 inhalations a day of NO (treatment group) or oxygen (control group), along with the standard supportive treatment, for a maximum of 25 inhalations (based on phase I safety data). Each participant was examined and evaluated using the severity symptom score by a blinded pediatricians every […] (9 am and 3 pm). When the room-air SpO2 reached 92%, and the score was ≤5, and the patient was assessed as “ready for discharge”, the treatment was discontinued.
The data were managed and analyzed by independent statisticians group using the SAS version 9.1 (SAS Institute, Cary, North Carolina). […]

[6] = NO Group (N = 21), Methemoglobin >5%
[7] = NO Group (N = 21), NO2 concentration >5 ppm
[8] = NO Group (N = 21), Oxyhemoglobin <89%

## [N]=O [NO, nitric oxide]
[1]
  +2.5 Log10: 4.1 hours
  LD100: 5 h
  Latent Period: 2 h
[2]
  +2.5 Log10: 3.3 hours
  LD100: 4 h
  Latent Period: 3 h
[3]
  Effect on influenza viral replication and infectivity: reduced not just viral replication, but also its infectivity
[4]
  +2.5 Log10: 5 hours
  LD100: 6 h
  Latent Period: 4 h
[5]; 160 ppm NO intermittent inhalation
  Bleeding episodes or deaths during the study: no bleeding episodes or deaths; also recorded: no bleeding episodes
[5]; 30 minutes of inhaled 160 ppm NO five time a day
  NO2 elevations and clinical evidence of toxicity: neither associated with significant elevations in NO2 nor clinical evidence of toxicity; also recorded: no events of significant NO2 elevations
[5]; ITT, PP
  Safety and tolerability versus control (standard supportive treatment): no statistically significant safety and tolerability differences; also recorded: comparable to those in the standard-supportive treatment
[5]; NO Group (N = 21)
  Any AE, events (E): 22 E
  Any serious AE, events (E): 4 E
  Any serious AE, subjects n (%): 4 (19.0%) n (%)
  Any serious treatment-related AE, events (E): 0 E
  Any severe AE, events (E): 1 E
  Any severe AE, subjects n (%): 1 (4.8%) n (%)
  Any treatment-related AE, events: 6 E
  Death, events (E): 0 E
  Death, subjects n (%): 0 (0.0%) n (%)
  Treatment withdrawal due to AE, events (E): 1 E
  Treatment withdrawal due to AE, subjects n (%): 1 (4.8%) n (%)
  Treatment-related AE: Blood and Lymphatic System Disorders, Events: 5 Events
  Treatment-related AE: Investigations, Events: 1 Events
[5]; NO Group (N = 21), MedDRA SOC
  Treatment-related AE: Blood and Lymphatic System Disorders, subjects n (%): 4 (19.0%) n (%)
  Treatment-related AE: Investigations, subjects n (%): 1 (4.8%) n (%)
[5]; [6]
  Treatment-related AE: Methaemoglobinaemia, Events: 5 Events
  Treatment-related AE: Methaemoglobinaemia, subjects n (%): 4 (19.0%) n (%)
[5]; [7]
  Treatment-related AE: NO2 increase, Events: 1 Events
  Treatment-related AE: NO2 increase, subjects n (%): 1 (4.8%) n (%)
[5]; [8]
  Treatment-related AE: Oxyemoglobin decreased, Events: 1 Events
  Treatment-related AE: Oxyemoglobin decreased, subjects n (%): 1 (4.8%) n (%)
[5]; NO Group (N = 21), intermittent 160 ppm NO + standard treatment
  Any AE, subjects n (%): 10 (47.6%) n (%)
[5]; NO Group (N = 21), possibly or probably related to study treatment
  Any treatment-related AE, subjects n (%): 5 (23.8%) n (%)
[5]; NO group
  Subjects in whom MetHb values >5% were observed more than once: 3 subjects
  Subjects with MetHb measurement >5% during the study treatment period, n (%): 6 (28.5%) n (%)
[5]; NO group, each NO inhalation
  MetHb peak value at end of inhalation (mean): 3.3±0.9%
[5]; NO group, in two subjects
  Maximum MetHb value: 5.6%
[5]; NO group, tolerability
  Subjects who discontinued the study/study treatment, n (%): 2 (9.5%) n (%)
[5]; general statement referring to the Examples
  SpMet level of infants undergoing the method: ≤ 1%
[5]; pre- vs end of inhalation MetHb levels
  Cumulative effect / accumulation of MetHb over the treatment period: no cumulative effect; also recorded: no accumulation of MetHb
